# Values quoted from earlier work in patent US20230165822A1, “URINARY ALKALIZING MEDICINAL AND/OR PHARMACEUTICAL COMPOSITION FOR THE ORAL TREATMENT OF INTERSTITIAL CYSTITIS / BLADDER PAIN SYNDROME (IC/BPS) AND FORMULATION THEREOF” (priority 2020, published 2023).
# Details: in vivo
smiles,measurement,value
CC(=O)/N=c1/sc(S(N)(=O)=O)nn1C [Methazolamide],share reaching the bladder,only a fraction
